In ChEMBL document CHEMBL4706663, “Large-scale isolation and antitumor mechanism evaluation of compounds from the traditional Chinese medicine Cordyceps Militaris” (Eur J Med Chem, 2021):

Experiments:
[1] = Antitumor activity against human Lewis lung cancer cells xenografted in BALB/c mouse assessed as tumor growth inhibition at 20 mg/kg, ig administered every day for 10 days relative to control; settings: Lewis lung carcinoma, po, 240 h, read-out: TGI
[2] = Toxicity in human Lewis lung cancer cells xenografted BALB/c mouse assessed as survival rate at 20 mg/kg, ig administered every day for 10 days (reference value: 100%); settings: in vivo, po
[3] = Antitumor activity against human H22 cells xenografted in KM mouse assessed as tumor growth inhibition at 20 mg/kg, ig administered every day for 10 days relative to control; settings: H22, po, 240 h, read-out: TGI
[4] = Toxicity in human H22 cells xenografted KM mouse assessed as survival rate at 20 mg/kg, ig administered every day for 10 days relative to control; settings: in vivo, po
A549 = assay: Antiproliferative activity against human A549 cells assessed as inhibition of cell growth at 12.5 ug/ml measured after 48 hrs by real-time cell analysis relative to control; assay type: functional; settings: read-out: GI
HepG2 = assay: Antiproliferative activity against human HepG2 cells assessed as inhibition of cell growth at 12.5 ug/ml measured after 48 hrs by real-time cell analysis relative to control; assay type: functional; settings: read-out: GI
Mus musculus [5] = assay: Anti-insomnia activity pentobarbital-induced mouse model of insomnia assessed as number of forelimb lifts at 0.029 mg/kg, ig administered daily for 15 days followed by pentobarbital addition at 1 hr post last dose (reference value: 9.2 +/- 4.31); assay type: functional; settings: time 15 day
Mus musculus [6] = assay: Anti-insomnia activity pentobarbital-induced mouse model of insomnia assessed as time of sleep latency at 0.029 mg/kg, ig administered daily for 15 days followed by pentobarbital addition at 1 hr post last dose (reference value: 8.1 +/- 6.06 min); assay type: functional; settings: time 15 day
Mus musculus [7] = assay: Anti-insomnia activity pentobarbital-induced mouse model of insomnia assessed as time of sleep duration at 0.029 mg/kg, ig administered daily for 15 days followed by pentobarbital addition at 1 hr post last dose (reference value: 17.1 +/- 5.15 min); assay type: functional; settings: time 15 day
Mus musculus [8] = assay: Anti-insomnia activity pentobarbital-induced mouse model of insomnia assessed as sleep rate at 0.029 mg/kg, ig administered daily for 15 days followed by pentobarbital addition at 1 hr post last dose relative to control; assay type: functional; settings: time 15 day
Mus musculus [9] = assay: Anti-insomnia activity pentobarbital-induced mouse model of insomnia assessed as number of forelimb lifts at 32 mg/kg, ig administered daily for 15 days followed by pentobarbital addition at 1 hr post last dose (reference value: 9.2 +/- 4.31); assay type: functional; settings: time 15 day
Mus musculus [10] = assay: Anti-insomnia activity pentobarbital-induced mouse model of insomnia assessed as number of forelimb lifts at 16 mg/kg, ig administered daily for 15 days followed by pentobarbital addition at 1 hr post last dose (reference value: 9.2 +/- 4.31); assay type: functional; settings: time 15 day
Mus musculus [11] = assay: Anti-insomnia activity pentobarbital-induced mouse model of insomnia assessed as number of forelimb lifts at 8 mg/kg, ig administered daily for 15 days followed by pentobarbital addition at 1 hr post last dose (reference value: 9.2 +/- 4.31); assay type: functional; settings: time 15 day
Mus musculus [12] = assay: Anti-insomnia activity pentobarbital-induced mouse model of insomnia assessed as time of sleep latency at 32 mg/kg, ig administered daily for 15 days followed by pentobarbital addition at 1 hr post last dose (reference value: 8.1 +/- 6.06 min); assay type: functional; settings: time 15 day
Mus musculus [13] = assay: Anti-insomnia activity pentobarbital-induced mouse model of insomnia assessed as time of sleep latency at 16 mg/kg, ig administered daily for 15 days followed by pentobarbital addition at 1 hr post last dose (reference value: 8.1 +/- 6.06 min); assay type: functional; settings: time 15 day
Mus musculus [14] = assay: Anti-insomnia activity pentobarbital-induced mouse model of insomnia assessed as time of sleep latency at 8 mg/kg, ig administered daily for 15 days followed by pentobarbital addition at 1 hr post last dose (reference value: 8.1 +/- 6.06 min); assay type: functional; settings: time 15 day
Mus musculus [15] = assay: Anti-insomnia activity pentobarbital-induced mouse model of insomnia assessed as time of sleep duration at 32 mg/kg, ig administered daily for 15 days followed by pentobarbital addition at 1 hr post last dose (reference value: 17.1 +/- 5.15 min); assay type: functional; settings: time 15 day
Mus musculus [16] = assay: Anti-insomnia activity pentobarbital-induced mouse model of insomnia assessed as time of sleep duration at 16 mg/kg, ig administered daily for 15 days followed by pentobarbital addition at 1 hr post last dose (reference value: 17.1 +/- 5.15 min); assay type: functional; settings: time 15 day
Mus musculus [17] = assay: Anti-insomnia activity pentobarbital-induced mouse model of insomnia assessed as time of sleep duration at 8 mg/kg, ig administered daily for 15 days followed by pentobarbital addition at 1 hr post last dose (reference value: 17.1 +/- 5.15 min); assay type: functional; settings: time 15 day
Mus musculus [18] = assay: Anti-insomnia activity pentobarbital-induced mouse model of insomnia assessed as sleep rate at 32 mg/kg, ig administered daily for 15 days followed by pentobarbital addition at 1 hr post last dose relative to control; assay type: functional; settings: time 15 day
Mus musculus [19] = assay: Anti-insomnia activity pentobarbital-induced mouse model of insomnia assessed as sleep rate at 16 mg/kg, ig administered daily for 15 days followed by pentobarbital addition at 1 hr post last dose relative to control; assay type: functional; settings: time 15 day
Mus musculus [20] = assay: Anti-insomnia activity pentobarbital-induced mouse model of insomnia assessed as sleep rate at 8 mg/kg, ig administered daily for 15 days followed by pentobarbital addition at 1 hr post last dose relative to control; assay type: functional; settings: time 15 day
Mus musculus [21] = assay: Anti-insomnia activity pentobarbital-induced ig dosed mouse model of insomnia assessed as reduction in time before sleep administered daily for 15 days followed by pentobarbital addition at 1 hr post last dose; assay type: functional, organism-based; settings: dose 8-32 mg/kg, time 15.0 day
Mus musculus [22] = assay: Anti-insomnia activity pentobarbital-induced ig dosed mouse model of insomnia assessed as increase in sleep time administered daily for 15 days followed by pentobarbital addition at 1 hr post last dose; assay type: functional, organism-based; settings: dose 8-32 mg/kg, time 15.0 day

Work on `O=P1(N(CCCl)CCCl)NCCCO1` (stereo unspecified) [CYCLOPHOSPHAMIDE ANHYDROUS] yielded an inhibition in vivo at 20 mg/kg [1] of 46.3%, a survival at 240 h [2] of 100% and an inhibition in vivo at 20 mg/kg [3] of 52.9%. The survival at 240 h [4] was 100%.

`CC(C)[C@@H](C)/C=C/[C@@H](C)[C@H]1CC[C@H]2C3=CC(=O)[C@@]4(O)C[C@@H](O)CC[C@]4(C)[C@H]3CC[C@]12C` gave an inhibition of growth at 12.5 µg/mL (A549) of 100% and an inhibition of growth at 12.5 µg/mL (HepG2) of 100%.

For `Clc1ccc2c(c1)C(c1ccccc1)=NCc1nncn1-2` [ESTAZOLAM], the Activity (Mus musculus [5]) was 4.1, the Time (Mus musculus [6]) was 5.9 min and the Time (Mus musculus [7]) was 26 min. For the same molecule, the Activity (Mus musculus [8]) was 60%.

In the case of `OCCNc1ncnc2c1ncn2[C@@H]1O[C@H](CO)[C@@H](O)[C@H]1O`, the Activity (Mus musculus [9]) is reported as 3.3, the Activity (Mus musculus [10]) is reported as 3.9 and the Activity (Mus musculus [11]) is reported as 9. For the same molecule, the Time (Mus musculus [12]) was 5.1 min, the Time (Mus musculus [13]) was 5.2 min and the Time (Mus musculus [14]) was 5.7 min. It also gave a Time (Mus musculus [15]) of 34.5 min, a Time (Mus musculus [16]) of 26.2 min and a Time (Mus musculus [17]) of 24.2 min. It also gave an Activity (Mus musculus [18]) of 60%, an Activity (Mus musculus [19]) of 40% and an Activity (Mus musculus [20]) of 20%. The Activity (Mus musculus [21]) was “Dose-dependent effect” and the Activity (Mus musculus [22]) was “Dose-dependent effect”.

With `C/C(=C\[C@@H](C)[C@H]1CC[C@@H]2[C@]1(C)CC[C@H]1[C@]23C=C[C@]2(C[C@@H](O)CC[C@]12C)OO3)[C@H](C)C(C)C` the inhibition of growth at 12.5 µg/mL (A549) was 100% and the inhibition of growth at 12.5 µg/mL (HepG2) was 100%.
